Measurements reported in US12151010B2, “Skin lightening agent” (POLA CHEMICAL INDUSTRIES, INC., priority 2018, dated 2024).

Tested on: pigmentation of UV-irradiated test sites on the medial upper arms of panelists
Test: Test of skin whitening effect (pigmentation ameliorating effect), skin lightness L* by color difference meter after UV irradiation
Type: in vivo, human (panelists)
Settings: for Pigmentation amelioration Rating: 25-day application; for Pigmentation amelioration ΔL*: 50 μL twice a day for 25 days after 3x 1 MED UV, L* minus Comparative Example site
Experimental: The cosmetics according to Table 1 (Examples 1 to 9, Comparative Example, and Reference Example) were prepared respectively in a conventional manner. With regard to each of the prepared cosmetics, the skin whitening effect (pigmentation ameliorating effect) was evaluated by the following method. That is, total 8 test sites in a size of 0.5 cm×0.5 cm were established on the medial parts of the left and right upper arms of each of 10 panelists who participated voluntarily. Each established site was irradiated with a minimum erythema dose (1 MED) of UV light once a day for three consecutive days, namely totally three times. At the end of the UV irradiation on the first day of the test (at the end of the first irradiation) and thereafter each 50 μL of the cosmetics of Comparative Example and any one of Examples 1 to 9 or Reference Example were applied respectively to one site and the remaining seven sites twice a day for 25 consecutive days. The skin lightness (L* value) of each test site was measured 24 hours after the end of the 25-day application period with a color difference meter (CR-300, Konica Minolta Holdings, Inc.). By subtracting the L* value of the site to which the cosmetic of Comparative Example was applied from each L* value of the sites to which the cosmetic of Example or Reference Example was applied, the difference in skin lightness (ΔL* value) was calculated. Since the L* value decreases, as the degree of pigmentation becomes severer, it may be so judged that pigmentation is ameliorated, when the ΔL* value is higher.

[1] = content 0.01% by mass in Table 1 cosmetic
[2] = content 1% by mass in Table 1 cosmetic
[3] = content 3% by mass in Table 1 cosmetic

| SMILES | Pigmentation amelioration Rating [1] | Pigmentation amelioration ΔL* [1] | Pigmentation amelioration Rating [2] | Pigmentation amelioration ΔL* [2] | Pigmentation amelioration Rating [3] | Pigmentation amelioration ΔL* [3] |
| --- | --- | --- | --- | --- | --- | --- |
| NCC1CCC(C(=O)c2ccc(CCC(=O)O)cc2)CC1 (centres unmarked) [Compound 1, 3-[p-(4-aminomethylcyclohexylcarbonyl)phenyl]propionic acid] | A (0.4 < ΔL* < 0.5) | 0.47 | AA (ΔL* ≥ 0.5%) | 0.50 | AA (ΔL* ≥ 0.5%) | 0.52 |
| CCCCCCOC(=O)CCc1ccc(C(=O)C2CCC(CN)CC2)cc1 (centres unmarked) [Compound 2, 3-[p-(4-aminomethylcyclohexylcarbonyl)phenyl]propionate hexyl] | – | – | A (0.4 < ΔL* < 0.5) | 0.43 | – | – |
| NCC1CCC(C(=O)c2ccc(CCCO)cc2)CC1 (centres unmarked) [Compound 3, 3-[p-(4-aminomethylcyclohexylcarbonyl)phenyl]propanol] | A (0.4 < ΔL* < 0.5) | 0.45 | A (0.4 < ΔL* < 0.5) | 0.48 | – | – |
| CCCCCC(=O)OCCCc1ccc(C(=O)C2CCC(CN)CC2)cc1 (centres unmarked) [Compound 4, 3-[p-(4-aminomethylcyclohexylcarbonyl)phenyl]propyl hexanoate] | – | – | A (0.4 < ΔL* < 0.5) | 0.45 | – | – |
| CCCCCC(=O)OCC(C)Cc1ccc(C(=O)C2CCC(CN)CC2)cc1 (centres unmarked) [Compound 5, 2-methyl-3-[p-(4-aminomethylcyclohexylcarbonyl)phenyl]propyl hexanoate] | – | – | A (0.4 < ΔL* < 0.5) | 0.42 | – | – |
| Cl.NCC1CCC(C(=O)c2ccc(CCC(=O)O)cc2)CC1 (centres unmarked) [Hydrochloride of Compound 1] | – | – | AA (ΔL* ≥ 0.5%) | 0.52 | – | – |
| NC[C@H]1CC[C@H](C(=O)O)CC1 [Tranexamic acid, reference compound] | – | – | B (ΔL* ≤ 0.4) | 0.40 | – | – |
